Patent US12161628B2, “Combination therapy” (Medivation Prostate Therapeutics LLC, priority 2015, dated 2024)
Values joined by “and” are separate entries in the source; they are usually repeats but may differ in a detail not shown here. Equal entries are not always repeated. Where two headings read alike, the source gives them in different places.

Key:
clinical = settings: human, in vivo; for Vd/F: Vz/F
Protocol: (§1) For all subjects in the rifampin treatment arm, the last quantifiable enzalutamide concentration was measured prior to the end of the rifampin dosing period (up to 13 days after enzalutamide dosing).
(§2) It should be noted that AUCs could only be accurately determined for 4 subjects in the enzalutamide treatment arm (treatment arm 1) and 6 subjects in the enzalutamide+rifampin treatment arm (treatment arm 2).

[1] = human, in vivo
Protocol: as §1, §2

CYP3A4 = settings: in vivo
Protocol: Data handling. […] In addition, for many subjects, urine samples taken post enzalutamide dose were not taken within 180 minutes of the ‘virtual’ enzalutamide dosing time (i.e., day 1 enzalutamide dosing time [enzalutamide treatment arm{treatment arm 1}] and day 8 enzalutamide dosing time [enzalutamide+rifampin treatment arm {treatment arm 2}]) and/or pre-dose of rifampin. The 6β-hydroxycortisol and cortisol concentrations of these urine samples and obtained 6β-hydroxycortisol/cortisol ratios were excluded from summary statistics.

[2] = Rifampin plasma pharmacokinetics on day 8 after multiple doses of 600 mg once daily; type: in vivo, human (healthy volunteers); settings: multiple doses of 600 mg rifampin once daily; for AUC / concentration at 2 h / Cmax / Tmax: human, plasma, oral, 600 mg
Protocol: Data handling. The actual sampling time of enzalutamide and its metabolites for 6 subjects (7 samples in total), and the actual sampling time of the 2-hour rifampin sample of subject 10002 on Day 21 deviated more than 10% of the scheduled time point.
In FIG. 7, individual and mean rifampin C2H plasma concentrations that were obtained during the entire dosing period of 21 days are presented.
Median tmax was reached 2 hours post-dose.

[3] = Drug-drug interaction trial: plasma pharmacokinetics of enzalutamide, M1, M2 and sum of enzalutamide plus M2 after single 160 mg enzalutamide alone or with multiple doses of rifampin; settings: for MPR (MWC): metabolite versus parent ratio (molecular weight corrected), Mean: based on AUCinf;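 as to all read-outs here: human plasma pharmacokinetics in a two-arm drug interaction trial comparing enzalutamide given alone against enzalutamide given with rifampin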
Protocol: as §1, §2

[4] = plasma, Enzalutamide (Reference), single 160 mg dose alone
[5] = plasma, single dose 160 mg enzalutamide alone
[6] = plasma, single dose 160 mg enzalutamide in the presence of multiple doses of 600 mg rifampin once daily (Test)

CNC(=O)c1ccc(N2C(=S)N(c3ccc(C#N)c(C(F)(F)F)c3)C(=O)C2(C)C)cc1F [Enzalutamide, 4-{3-[4-cyano-3-(trifluoromethyl)phenyl]-5,5-dimethyl-4-oxo-2-sulfanylideneimidazolidin-1-yl}-2-fluoro-N-methylbenzamide]
AUC(0-inf) (clinical): 86.9 µg·h/mL
AUC(0-t) (clinical): 86.8 µg·h/mL
Cmax (clinical): 4520 ng/mL
AUC(0-t) (clinical; 160 mg, AUC0-336h, Mean): 239 µg·h/mL
AUC(0-t) (clinical; 160 mg, AUC0-336h, Median): 233 µg·h/mL
AUC(0-t) (clinical; 160 mg, AUC0-t, Mean): 258 µg·h/mL
AUC(0-t) (clinical; 160 mg, AUC0-t, Median): 254 µg·h/mL
AUC(0-inf) (clinical; 160 mg, AUCinf, Geometric LS Mean): 257 µg·h/mL
AUC(0-inf) (clinical; 160 mg, AUCinf, Mean): 262 µg·h/mL
AUC(0-inf) (clinical; 160 mg, AUCinf, Median): 259 µg·h/mL
Cmax (clinical; 160 mg, Cmax, Geometric LS Mean): 4860 ng/mL
Cmax (clinical; 160 mg, Cmax, Mean): 4930 ng/mL
Cmax (clinical; 160 mg, Cmax, Median): 5140 ng/mL
Vd/F (clinical; 160 mg, Mean): 79.8 L
Vd/F (clinical; 160 mg, Median): 78.1 L
half-life (clinical; 160 mg, t1/2, Mean): 90.1 h
half-life (clinical; 160 mg, t1/2, Median): 85.7 h
Tmax (clinical; 160 mg, Mean): 1.08 h
Tmax (clinical; 160 mg, Median): 0.91 h
AUC0-336hr lower in the presence of rifampin [1]: 63%
AUCinf lower in the presence of rifampin [1]: 66%
% AUC (percentage extrapolated), range of individual values ([1]; 160 mg): 0.658-4.56%
CL/F, Mean ([1]; 160 mg): 0.6330 L/h
CL/F, Median ([1]; 160 mg): 0.6184 L/h
Inductive effect on CYP3A4 (pharmacodynamic assessment) (CYP3A4): minimal inductive effect

CO[C@H]1/C=C/O[C@@]2(C)Oc3c(C)c(O)c4c(O)c(c(/C=N/N5CCN(C)CC5)c(O)c4c3C2=O)NC(=O)/C(C)=C\C=C\[C@H](C)[C@H](O)[C@@H](C)[C@@H](O)[C@@H](C)[C@H](OC(C)=O)[C@@H]1C [Rifampin, rifampin]
AUC ([2]; read-out: AUCtau, Mean): 35.6 µg·h/mL
AUC ([2]; read-out: AUCtau, Median): 35.2 µg·h/mL
concentration at 2 h ([2]; read-out: C2h, Mean): 6760 ng/mL
concentration at 2 h ([2]; read-out: C2h, Median): 6620 ng/mL
Cmax ([2]; read-out: Cmax, Mean): 7160 ng/mL
Cmax ([2]; read-out: Cmax, Median): 7040 ng/mL
Tmax ([2]; read-out: tmax, Mean): 1.72 h
Tmax ([2]; read-out: tmax, Median): 2 h
Cmin, Mean [2]: 0 ng/mL

CC1(C)C(=O)N(c2ccc(C#N)c(C(F)(F)F)c2)C(=S)N1c1ccc(C(=O)O)c(F)c1 [M1]
AUC0-336hr lower in the presence of rifampin [1]: 15%
AUCinf lower in the presence of rifampin [1]: 32%
AUC0-336h, Mean ([1]; 160 mg): 32.49 µg·h/mL
AUC0-336h, Median ([1]; 160 mg): 31.38 µg·h/mL
AUC0-t, Mean ([1]; 160 mg): 47.87 µg·h/mL
AUC0-t, Median ([1]; 160 mg): 46.66 µg·h/mL
AUCinf, Geometric LS Mean ([1]; 160 mg): 59.62 µg·h/mL
AUCinf, Mean ([1]; 160 mg): 62.14 µg·h/mL
AUCinf, Median ([1]; 160 mg): 57.39 µg·h/mL
Cmax, Geometric LS Mean ([1]; 160 mg): 134.6 ng/mL
Cmax, Mean ([1]; 160 mg): 141.4 ng/mL
Cmax, Median ([1]; 160 mg): 135 ng/mL
t1/2, Mean ([1]; 160 mg): 223.9 h
t1/2, Median ([1]; 160 mg): 236.6 h

CC1(C)C(=O)N(c2ccc(C#N)c(C(F)(F)F)c2)C(=S)N1c1ccc(C(N)=O)c(F)c1 [M2, N-desmethyl enzalutamide]
AUC0-336hr higher in the presence of rifampin ([3]; compared to enzalutamide alone): 15%
AUCinf lower in the presence of rifampin ([3]; compared to enzalutamide alone): 15%
Cmax higher in the presence of rifampin ([3]; compared to enzalutamide alone): 34%
AUCinf, Geometric LS Mean [3, 4]: 349.3 µg·h/mL
Cmax, Geometric LS Mean [3, 4]: 737 ng/mL
AUC0-336h, Mean [3, 5]: 197.6 µg·h/mL
AUC0-336h, Median [3, 5]: 184.1 µg·h/mL
AUC0-t, Mean [3, 5]: 344.3 µg·h/mL
AUC0-t, Median [3, 5]: 338.3 µg·h/mL
AUCinf, Mean [3, 5]: 354.0 µg·h/mL
AUCinf, Median [3, 5]: 351.0 µg·h/mL
Cmax, Mean [3, 5]: 754.6 ng/mL
Cmax, Median [3, 5]: 714.5 ng/mL
MPR (MWC): metabolite versus parent ratio (molecular weight corrected), Median [3, 5]: 1.373
t1/2, Mean [3, 5]: 190.4 h
t1/2, Median [3, 5]: 182.1 h
tmax, Mean [3, 5]: 161.3 h
MPR (MWC): metabolite versus parent ratio (molecular weight corrected), Mean [3, 5]: 1.385 and 1.431
AUC0-336h, Mean [3, 6]: 224.0 µg·h/mL
AUC0-336h, Median [3, 6]: 221.9 µg·h/mL
AUC0-t, Mean [3, 6]: 292.1 µg·h/mL
AUC0-t, Median [3, 6]: 293.5 µg·h/mL
AUCinf, Mean [3, 6]: 297.9 µg·h/mL
AUCinf, Median [3, 6]: 299.4 µg·h/mL
Cmax, Mean [3, 6]: 994.9 ng/mL
Cmax, Median [3, 6]: 1010 ng/mL
MPR (MWC): metabolite versus parent ratio (molecular weight corrected), Median [3, 6]: 3.372
t1/2, Mean [3, 6]: 154.7 h
t1/2, Median [3, 6]: 152.5 h
tmax, Mean [3, 6]: 66.75 h
tmax, Median [3, 6]: 71.86 h
MPR (MWC): metabolite versus parent ratio (molecular weight corrected), Mean [3, 6]: 3.443 and 3.558
